Patent US20220023450A1, “BONE MARROW-, RETICULOE[…]-, AND/OR LYMPH NODE-TARGETED RA[…] AND METHODS OF THEIR DIAGNOSTIC AND […] USE” (Memorial Sloan Kettering Cancer Center, priority 2018, published 2022)
Where two headings read alike, the source gives them in different places.

Experiments:
MDA-MB-468 tumor = assay: Focal radiation therapy of tumor after GT3 administration; format: in vivo; details: 10 mg/kg GT3 prior to 11 Gy focal irradiation
Text: Though GT3 accumulation in the tumor is moderate, there is possibility that GT3 in the tumor might protect tumor during radiation therapy. On the contrary, there are several reports that tocotrienols suppress the proliferation of a wide variety of tumor cells in culture, such as MDA-MB-435, MCF-7, PC-3, LnCaP and DLD-1. Animal studies also have been shown that tocotrienol suppresses the growth of tumors such as 7,12-dimethylbenz(a)anthracene induced mammary tumor, HepG2, and PC-3. To address the question that GT3 protects tumors from irradiation, focal radiation therapy was performed to evaluate the effect of GT3 in the tumor when 10 mg/kg GT3 was administered prior to 11 Gy focal irradiation.

[1] = test system: peripheral blood cells (WBC, lymphocytes, platelets); assay: Blood cell recovery after sub-lethal total body irradiation (4 Gy); format: in vivo, C57/BL6 mice
Method: GT3-Lipo treated 24 h before TBI, GT3-Lipo treated 24 h after TBI, BMT only and no treatment.
FIGS. 3A and 3B a plot of complete blood count (CBC) data showing white blood cell (WBC) recovery after total body irradiation (TBI) (4 Gy) (FIG. 3A), and a plot of lymphocyte recovery after TBI (4 Gy) (FIG. 3B). C57BL6 mice were divided into 4 groups (5 mice per group). (Filled circle) GT3-Lipo treated 24 h before TBI. (Open square) BMT-Lipo treated 24 h before TBI. (Filled square) GT3-Lipo treated 24 h after TBI. (Open circle) No treatment. 10 mg/kg/mice GT3 were treated via i.v. and blood was collected by retro-orbital bleeding on day 0, 1, 4, 7, 14, 21, 43, 57 and 99.
White blood cells (WBC), lymphocytes, and neutrophils decreased to less than 10% of baseline counts with a nadir at day 1-4, post irradiation. […] Recovery of GT3 treated groups reached 100% at day 43. For the untreated group, WBC and lymphocyte counts recovered about 60% at day 43 and WBC and lymphocyte counts never recovered to normal level until day 99. Neutrophil counts decreased to nadir on day 4 for GT3 treated and untreated groups. […] recovered on day 7 and remained relatively the same counts until day 99. Platelet counts increased on day 1 and decreased to nadir on day 14. Platelet counts were recovered to normal level at day 43 and remained the same level until day 99 in all groups.
6- to 8-week-old C57/BL6 mice (Jackson Lab., Bar Harbor, Me.) were used for bone marrow protection from total body irradiation studies. 10 mg/kg GT3 liposomes (6% mol) were administered via i.v. 24 h pre- and post-total body irradiation (4 Gy, […], dose rate=82 cGy/min). No supportive care was given to mice after irradiation. Approximately 100 μL of blood was collected by retro-orbital blood collection for complete blood cell counts at various time points for 100 days.

[2] = C57/BL6, mouse, in vivo
Method: Mice were sacrificed at the indicated time and major organs were collected and weighed. ^64Cu counting was done as soon as the organs were collected and ^3H counting was measured 5 days after mice were sacrificed. The % ID/g was calculated by measuring weight and time corrected measurement of radioactivity. n=5 per group.
For biodistribution studies, approximately 5.5 MBg of [^64Cu]-DOTA-Bz-DSPE-labeled liposome and 370 kBq of ^3H-GT3 incorporated liposome was intravenously administered to C57/BL6 athymic nude mice (n=5 per group) via tail vein injection. Mice were sacrificed at 24 or 48 h after injection and major organs were collected and placed in pre-weighed culture tubes or Eppendorf tubes. To collect bone marrow, the femur was dipped into liquid nitrogen and one of the epiphyses was carefully removed. A 30 mL syringe with gauge 30½ needles was inserted into one end of the femur; air was blown and bone marrow was collected in the same tubes for radioactivity counting in a gamma counter (PerkinElmer, Inc., Waltham, Mass.). For ^3H activity measurement, major organs were collected in pre-weighed scintillation vials and 500 uL of Soluene®-350 were added. After overnight incubation at 37° C., 4.5 mL of Ecoscint A were added, mixed well, and counted in scintillation counter. Data were presented as percent injected dose per gram (% ID/g) of tissue.

| Structure (SMILES) | effect on tumor response to focal radiation (MDA-MB-468 tumor) | platelet counts compared with untreated group ([1]; 4 Gy TBI) | recovery of WBC and lymphocytes compared with untreated group ([1]; 4 Gy TBI, 10 mg/kg GT3 liposomes i.v. 24 h before or after TBI) | recovery of WBC and lymphocyte counts ([1]; day 43 after 4 Gy TBI, 10 mg/kg GT3 liposomes i.v.) [%] | loss of active drug during the tissue targeting process [2] | Biodistribution, Marrow ([2]; 24 h) [% ID/g] | Biodistribution, Spleen ([2]; 24 h) [% ID/g] | Biodistribution, Marrow ([2]; 48 h) [% ID/g] | Biodistribution, Spleen ([2]; 48 h) [% ID/g] |
| --- | --- | --- | --- | --- | --- | --- | --- | --- | --- |
| CC(C)=CCC/C(C)=C/CC/C(C)=C/CC[C@]1(C)CCc2cc(O)c(C)c(C)c2O1 [GT3, (2R)-2,7,8-trimethyl-2-[(3E,7E)-4,8,12-trimethyltrideca-3,7,11-trienyl]-3,4-dihydrochromen-6-ol] | does not protect nor sensitize | no significant differences | faster and more complete | 100 |  |  |  |  |  |
| CC(C)=CCC/C(C)=C/CC/C(C)=C/CC[C@]1(C)CCc2cc(O)c(C)c(C)c2O1 [[^3H]-GT3] |  |  |  |  | approximately 50% | 4.28±1.57 | 7.95±1.63 | 7.44±2.81 | 8.26±1.86 |
